Source: PMC4198181, “Gold(I) Complexes of 9-Deazahypoxanthine as Selective Antitumor and Anti-Inflammatory Agents” (PLoS ONE, 2014)

Assays:
[1] = system: MCF7 breast carcinoma cells; assay: MTT in vitro cytotoxicity, MCF7; format: cell-based, human; details: 24 h treatment, read-out: IC50±S.E., MCF7
Procedure: In vitro cytotoxic activity was determined by the MTT assay in human breast adenocarcinoma (MCF7; ECACC no. 86012803), human osteosarcoma (HOS; ECACC no. 87070202), lung carcinoma (A549; ECACC no. 86012804), malignant melanoma (G361; ECACC no. 88030401), cervix epitheloid carcinoma (HeLa; ECACC no. 93021013), ovarian carcinoma (A2780; ECACC no. 93112519), cisplatin-resistant ovarian carcinoma (A2780R; […] ECACC no 105092802) cancer cell lines, purchased from European Collection of Cell Cultures (ECACC). […] The primary culture of human hepatocytes (HEP220, batch number HEP220819) was obtained from Biopredic International (France). The culture medium was Williams and HAM's F-12 (1∶1) supplemented with penicillin, streptomycin, ascorbic acid, linoleic acid, holo-transferin, ethanolamine, glucagon, insulin, dexamethasone, pyruvate, glucose, glutamine, amphotericin. The medium was enriched for plating with 2% foetal calf serum (v/v). The medium was exchanged for a serum-free medium the day after and the culture was stabilized for additional 24 h. Thereafter, the cells were ready for treatments. […] The MTT assay was performed spectrophotometrically at 540 nm (TECAN, Schoeller Instruments LLC). The cytotoxicity data were expressed as the percentage of viability, where 100% represented the treatments with vehicle (0.1% DMF or 0.1% DMSO). The cytotoxicity data from the cancer cell lines were acquired from three independent experiments (conducted in triplicate) using cells from different passages. The IC50 values were calculated from viability curves. The results are presented as arithmetic means±standard error of the mean (S.E.).

[2] = system: λ-carrageenan-induced hind paw edema; assay: Carrageenan-induced hind paw edema; format: in vivo, Wistar-SPF rats
Procedure: Wistar-SPF (6–8 weeks male) rats were obtained from AnLab, Ltd. (Prague, Czech Republic). The animals were kept in plexiglass cages at the constant temperature of 22±1°C and relative humidity of 55±5% for at least 1 week before the experiment. They were given food and water ad libitum. All the experimental procedures were performed according to the National Institutes of Health (NIH) Guide for the Care and Use of Laboratory Animals. In addition, all the tests were conducted under the guidelines of the International Association for the Study of Pain [61]. After a one-week adaptation period, male Wistar-SPF rats (200–250 g) were randomly assigned to five groups (n = 7) of the animals in the study. The first, control group, received 25% DMSO (v/v in water, intraperitoneal; i.p.). The next three groups were pretreated with complexes 2, 4 and 5, and involved into the carrageenan-treatment. The fifth group was treated with a non-steroidal anti-inflammatory drug Indomethacin (5 mg/kg), which served as a positive control group (Indomethacin + carrageenan).
(§1) The carrageenan-induced hind paw edema model was used for the determination of anti-inflammatory activity. Animals were i.p. pretreated with complexes 2, 4, and 5 (the dosages of the individual complexes were adjusted to contain the same amount of gold as in 10 mg/kg dose of Auranofin), Indomethacin (5 mg/kg), or 25% DMSO (v/v in water) 30 min prior to the injection of 1% λ-carrageenan solution (50 µL) into the plantar side of right hind paws of the rats. The paw volume was measured immediately after the carrageenan injection (this value was set-up as baseline value for the hind paw volume) and during the next 6 h after the administration of the edematogenic agent using a plethysmometer (model 7159, Ugo Basile, Varese, Italy). The degree of swelling was evaluated as a percentage of the change of the volume of the right hind paw after the carrageenan treatment from the baseline volume. A non-steroidal anti-inflammatory drug Indomethacin was used as a positive control and the obtained data were also compared with the previously reported profile of antiedematous activity for Auranofin [38]. After 6 h, the animals were sacrificed and the edematous feet were dissected, the tissue from the plantar parts was extracted, fixed and stained by a standard hematoxylin/eosin (HE) staining for cytological evaluation of polymorphonuclear cells infiltration.
The statistically significant differences between individual groups during anti- inflammatory testing were evaluated using a one-way ANOVA test for statistical analysis, followed by Tukey's post-hoc test for multiple comparisons. GraphPad Prism 5.02 (GraphPad Software Inc., San Diego, CA, USA) was used to perform the analysis. The results are presented as arithmetic means±S.E. values.

[3] = system: polymorphonuclear cells infiltration in hind paw tissue; assay: Ex vivo histological evaluation of hind paw tissue (HE staining, PMN infiltration); format: in vivo, Wistar-SPF rats; details: 6 h after carrageenan, Indomethacin 5 mg/kg
Procedure: as §1
To assess the tissue consequences connected with the reduction of inflammation caused by the tested compounds after the intraplantar injection of carrageenan, the histopathological observations were made on the tissue sections obtained from the laboratory animals after the plethysmometric experiments were finished. All animals were sacrificed by cervical dislocation, and immediately after that, the tissue samples were taken from the plantar area of hind paws. The histopathological changes in tissues, stained by the standard HE staining (see Figure 10), were evaluated by the presence of the inflammation infiltrate, which contained mainly neutrophils (polymorphonuclear cells - PMN).

[4] = i.p., dose equivalent in gold to 10 mg/kg Auranofin

Row | Compound | IC50 [1] [nM] | antiedematous effect compared with Auranofin ([2]; after 180 min, p<0.001, Auranofin profile from ref 38) | overall antiedematous / anti-inflammatory activity [2, 4] | antiedematous activity profile up to 180 min after carrageenan ([2]; i.p., dose equivalent in gold to 10 mg/kg Auranofin, 30 min before carrageenan) | antiedematous activity after 180 min ([2]; i.p., dose equivalent in gold to 10 mg/kg Auranofin, up to 6 h) | PMN (neutrophil) infiltrate in hind paw tissue sections [3]
1 | CC(C)Oc1ncnc2cc[n]([Au])c12.c1ccc(P(c2ccccc2)c2ccccc2)cc1 [complex 2, [Au(L2)(PPh3)]] | 600 ± 100 | even better than that of gold-containing metallodrug Auranofin | significant anti-inflammatory effects | very similar pharmacological profiles of complexes 2 and 4 with the reference drug Indomethacin | elimination of hind paw swelling | mainly scarce and diffuse
2 | [Au][n]1ccc2ncnc(OCCc3ccccc3)c21.c1ccc(P(c2ccccc2)c2ccccc2)cc1 [complex 5] | > 50000 |  | inactive |  |  | massive presence of PMN cells
